Reference: patent publication US5854004A, “Process for screening substances capable of modulating a receptor-dependent cellular signal transmission path” (Boehringer Ingleheim GmbH, priority 1991, dated 1998)
Where no end group is shown, it is not given here.

Experiments:
cell line A20 = assay: Luciferase induction in stable TRE-pretest cell line A20 (A549, pBHluc1.3); conditions: A20, no receptor DNA
Experimental: In order to produce a stable (pre-)test cell line for substances which influence the expression of the luciferase gene by direct or receptor-mediated modulation of the IP3 /DAC-signal transduction pathway, A549 cells were simultaneously transfected with the plasmid pBHluc1.3 and the selection plasmid pRSVneo by electroporation as follows: after removal of the medium the cells were detached from the surface by means of a trypsin/PBS solution, suspended in medium and sedimented for 5 minutes at 250×g. […] 0.8 ml of cell suspension were combined with 20 μg of pBHluc1.3 and 2 μg of pRSVneo. Both plasmids had previously been linearised with BamHI.
(§1) 15-20 days after transfection, individual cell clones were transferred into 96-well microtitre plates and further cultivated. […] Approximately 40,000 cells in each clone were sown, in a procedure repeated 6 times, in 200 μl per well of a light-impervious 96-well microtitre plate coated with tissue culture (Microlite™, Dynatech Laboratories) and incubated overnight at 37° C. Three mixtures were treated with 10 ng TPA/ml and incubated for a further 8 hours. Then the medium was removed and the cells were washed twice with PBS.
(§2) The pretest cell line A20 was transfected, as described under a), by electroporation with the plasmid pAHyg-NK2, which had previously been linearised with BglII. From the day after transfection onwards, the cells were grown in selection medium, as used for the cell line A20 and additionally enriched with 150 μg/ml hygromycin B (Sigma). Individual clones were tested for inducibility of the luciferase activity as described under a).

cell line CHO C6-13 = assay: Luciferase expression in CRE-pretest cell line CHO C6-13; conditions: for change in luciferase expression/activity: 3 hours treatment, FIG. 33
Experimental: The transfection by electroporation was carried out as follows: after removal of the medium the cells were detached from the surface by means of a trypsin/PBS solution, suspended in medium and pelleted for 5 minutes at 250×g. The cells were washed in HBS (10 mM HEPES pH 7.4, 150 mM NaCl) and pelleted by centrifuging. The cells were suspended in HBS in a density of 1×10^7 cells/ml. 0.8 ml of cell suspension were mixed with 20 μg of DNA of the plasmid pADneo2-C6-BGL linearised with ScaI and transferred into an electroporation dish. […] After the electroporation the cells were diluted in the medium mentioned above, 20,000 cells per 90 mm culture dish was sown and incubated overnight at 37° C.
Two batches of each were treated with 20 μM forskolin and incubated for a further 5 hours at 37° C. Then the medium was removed from all the cells and the cells were washed with PBS.
Cells of the cell line CHO C6-13 were treated for 3 hours with various substances which alter the intracellular concentration of cAMP or IP3 /DAG or simulate a change in concentration, and also treated with receptor-specific agonists which influence the above-mentioned signal transduction mechanisms.

human 5HT2-receptor = human 5HT2-receptor (Homo sapiens, UniProt P28223); assay: cell-based
Chain of human 5HT2-receptor (P28223 whole entry): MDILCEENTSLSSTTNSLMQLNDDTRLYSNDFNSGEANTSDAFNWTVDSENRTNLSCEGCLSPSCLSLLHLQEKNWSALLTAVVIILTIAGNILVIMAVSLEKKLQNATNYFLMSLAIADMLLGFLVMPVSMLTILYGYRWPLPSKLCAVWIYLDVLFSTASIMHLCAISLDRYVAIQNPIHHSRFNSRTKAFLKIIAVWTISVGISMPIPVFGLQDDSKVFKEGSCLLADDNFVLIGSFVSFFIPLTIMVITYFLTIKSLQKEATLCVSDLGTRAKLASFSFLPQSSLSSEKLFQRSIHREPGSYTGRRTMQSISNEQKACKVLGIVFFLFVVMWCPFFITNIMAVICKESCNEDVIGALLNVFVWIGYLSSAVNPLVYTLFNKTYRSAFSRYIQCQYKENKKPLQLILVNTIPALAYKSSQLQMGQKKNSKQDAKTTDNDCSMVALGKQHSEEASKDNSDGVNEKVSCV
From the text: The human 5HT2-receptor is another example of a receptor coupled to the phospholipase C-signal transduction pathway. The TRE-cell line A20 is therefore also suitable in this case as a starting cell line for establishing a test cell line in order to discover substances which modulate the activity of the 5HT2-receptor.
The plasmid pAHyg-5HT2, linearised with BglII, was for this purpose transfected into the cell line A20 by electroporation as described under a) and grown in selection medium.
For this purpose the cells were simultaneously treated with a constant amount of serotonin (1 μg) and increasing amounts of antagonist.

[1] = target: T1, human dopamine D1-receptor (Homo sapiens, UniProt P21728); assay: Luciferase activity in dopamine D1-receptor test cell line CHO 13D1-38
T1 sequence (P21728 whole entry): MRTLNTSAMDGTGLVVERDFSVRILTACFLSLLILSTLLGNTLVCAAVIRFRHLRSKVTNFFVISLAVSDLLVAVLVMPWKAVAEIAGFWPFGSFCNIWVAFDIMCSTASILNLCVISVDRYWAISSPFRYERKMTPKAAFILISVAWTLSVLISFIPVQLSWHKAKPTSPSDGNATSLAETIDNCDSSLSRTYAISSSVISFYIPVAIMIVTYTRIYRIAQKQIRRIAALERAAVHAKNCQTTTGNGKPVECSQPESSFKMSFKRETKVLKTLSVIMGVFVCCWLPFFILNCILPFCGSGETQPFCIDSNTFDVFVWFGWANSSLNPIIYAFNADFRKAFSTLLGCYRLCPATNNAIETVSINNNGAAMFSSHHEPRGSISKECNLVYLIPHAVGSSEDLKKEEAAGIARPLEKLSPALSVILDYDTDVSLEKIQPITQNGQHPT
Experimental: The cell line CHO C6-13 characterised above was transfected, as described under a), by electroporation with plasmid pAD-CMV2:D1, which had previously been linearised with FspI.
For the use of test cell lines in an automatic screening system with a high throughput rate it is advantageous to use microtitre plates having 96 wells per plate. For this purpose, 60,000 cells (CHO C6-13 or CHO 13D1-38) were sown in 200 μl medium per well in light-impermeable microtitre plates coated with tissue culture
(Microlite™, Dynatech Labroatories) and incubated overnight at 37° C. Then various chemicals were added to the cells and they were incubated for a certain length of time (usually 3 hours). After removal of the medium the cells were washed with PBS, lysed in 1% Triton X-100 and the luciferase activity was measured in a 96-well luminometer (ML-1000, Dynatech) (FIG. 36).
In order to simulate a screening process in which the test substances are preferably supplied in a uniform solvent, a final concentration of 1% DMSO was used in this experiment.

luciferase = luciferase (Photinus pyralis, UniProt P08659); assay: Effect of reagent component concentration on luciferase measuring signal; assay type: biochemical
Chain of luciferase (P08659 whole entry): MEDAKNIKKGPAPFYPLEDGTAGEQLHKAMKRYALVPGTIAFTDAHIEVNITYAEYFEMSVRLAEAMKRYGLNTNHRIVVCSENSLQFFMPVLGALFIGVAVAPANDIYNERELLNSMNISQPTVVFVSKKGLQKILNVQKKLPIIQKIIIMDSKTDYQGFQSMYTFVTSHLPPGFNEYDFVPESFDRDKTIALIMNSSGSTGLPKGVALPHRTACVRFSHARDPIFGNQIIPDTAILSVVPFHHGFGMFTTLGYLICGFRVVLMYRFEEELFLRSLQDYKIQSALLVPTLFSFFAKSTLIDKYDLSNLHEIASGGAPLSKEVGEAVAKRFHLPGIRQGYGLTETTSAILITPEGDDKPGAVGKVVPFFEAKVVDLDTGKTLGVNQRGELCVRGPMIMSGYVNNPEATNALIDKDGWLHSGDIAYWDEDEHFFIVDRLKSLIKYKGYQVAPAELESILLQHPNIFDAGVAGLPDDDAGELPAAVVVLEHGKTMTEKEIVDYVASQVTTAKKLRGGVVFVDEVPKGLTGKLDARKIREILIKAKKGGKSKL
Experimental: The effect of varying the concentration of ATP, luciferin, MgSO4. 7H2 O, dithiothreitol (DDT), β-mercaptoethanol (BME), sodium tripolyphosphate (NaTPP), Triton X-100 and the pH on the luciferase measuring signal obtained was determined (Table 2). The measurements obtained 3 minutes after the addition of the reagent were used for comparison (given as percentage of the maximum measuring signal obtained).

[2] = target: T2, human neurokinin 2-receptor (Homo sapiens, UniProt P21452); assay: Luciferase activity in NK2-test cell line A20/NK2-122
T2 sequence (P21452 1-398): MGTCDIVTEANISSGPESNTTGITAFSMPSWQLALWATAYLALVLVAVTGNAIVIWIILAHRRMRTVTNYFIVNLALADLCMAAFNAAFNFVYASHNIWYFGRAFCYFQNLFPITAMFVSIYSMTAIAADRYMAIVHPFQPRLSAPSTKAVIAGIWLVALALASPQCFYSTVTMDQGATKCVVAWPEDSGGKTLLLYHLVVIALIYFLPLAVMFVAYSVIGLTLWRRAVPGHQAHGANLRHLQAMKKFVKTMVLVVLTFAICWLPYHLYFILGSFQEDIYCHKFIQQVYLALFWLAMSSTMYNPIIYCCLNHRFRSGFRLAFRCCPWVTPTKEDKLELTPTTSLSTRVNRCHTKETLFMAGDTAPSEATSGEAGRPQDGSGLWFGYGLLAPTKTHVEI
Experimental: as §1
This Example illustrates the preparation of a test cell line for the human neurokinin 2 (NK2)-receptor which is coupled to the phospholipase C-signal transduction pathway. This test cell line makes it possible, by measurement of the luciferase activity, to identify substances which modulate the intracellular IP3 /DAG concentrations, depending on the receptor.
as §2

[3] = target: T1, human dopamine D1-receptor; assay: Induction of pADneo2-C6-BGL (CRE) via dopamine-D1-receptor in co-transfected COS-7 cells; conditions: 1 μM apomorphine and 1 μM SCH23390

## substance P (SP): neurokinin (Sigma), tachykinin (RPKPQQFFGLM-NH2; ends and bridges not checked; UniProt P20366 58-68, looked up)
Cell line A20
  induction of luciferase activity by receptor agonists in pretest cell line A20: could not be induced by any of the three tachykinins

## CNc1ccc2oc(C[C@H]3O[C@@]4(CC[C@H]3C)O[C@H]([C@H](C)C(=O)c3ccc[nH]3)[C@H](C)C[C@H]4C)nc2c1C(=O)O [A23187]
Cell line CHO C6-13
  change in luciferase expression/activity: did not bring about any significant change in the luciferase activity

## CC(C)Cn1c(=O)n(C)c(=O)c2[nH]cnc21 [IBMX, isobutylmethylxanthine]
Cell line CHO C6-13
  change in luciferase expression/activity: increased
Cell line CHO C6-13; with IBMX
  shift in the forskolin dosage-activity curve to lower forskolin concentrations: one order of magnitude
Cell line CHO C6-13; with forskolin
  influence on maximum induction of the luciferase reporter gene: not significantly influenced

## neurokinin A: neurokinin (Sigma), agonist at neurokinin 2-receptor (HKTDSFVGLM-NH2; ends and bridges not checked; UniProt P20366 98-107, looked up)
Cell line A20
  induction of luciferase activity by receptor agonists in pretest cell line A20: could not be induced by any of the three tachykinins

## O=C(CCCN1CCC2(CC1)C(=O)NCN2c1ccccc1)c1ccc(F)cc1 [spiperone]
Human 5HT2-receptor; constant serotonin (1 μg), increasing antagonist, FIG. 32B
  inhibition of the agonistic activity of serotonin: able to be inhibited

## CC(C)C[C@H]1C(=O)N2CCC[C@H]2[C@]2(O)O[C@](NC(=O)[C@@H]3C=C4c5cccc6[nH]c(Br)c(c56)C[C@H]4N(C)C3)(C(C)C)C(=O)N12 [bromocryptin]
Cell line CHO C6-13
  change in luciferase expression/activity: did not bring about any significant change in the luciferase activity
[1]; 100 μM bromocryptin
  luciferase induction at the highest concentration (attributed to cell toxicity or low pH): reversal of luciferase induction
[1]; FIG. 38B
  activity on luciferase induction: dosage-dependent activity

## C[N+](C)(C)CCOC(N)=O [carbachol]
Cell line CHO C6-13
  change in luciferase expression/activity: did not bring about any significant change in the luciferase activity

## O=P(O)(O)OP(=O)(O)OP(=O)(O)O [NaTPP, sodium tripolyphosphate]
luciferase; NaTPP 5.01 mg/l
  % max. signal (luciferase): 54%
luciferase; NaTPP 15.8 mg/l
  % max. signal (luciferase): 64%
luciferase; NaTPP 50.0 mg/l
  % max. signal (luciferase): 82%
luciferase; NaTPP 158 mg/l
  % max. signal (luciferase): 100%
luciferase; NaTPP 500 mg/l
  % max. signal (luciferase): 75%

## CCCC(=O)Nc1ncnc2c1ncn2[C@@H]1O[C@@H]2COP(=O)(O)O[C@H]2[C@H]1OC(=O)CCC [dibutyryl-cAMP]
Cell line CHO C6-13
  change in luciferase expression/activity: increased

## NCCc1c[nH]c2ccc(O)cc12 [serotonin]
Cell line A20
  induction of luciferase activity by receptor agonists in pretest cell line A20: could not be induced
Human 5HT2-receptor
  selectivity of dosage-activity curves: selective for serotonin
Human 5HT2-receptor; serotonin 1 μM
  induction time up to which luciferase activity increases continuously: 6 h
Cell line CHO C6-13
  change in luciferase expression/activity: did not bring about any significant change in the luciferase activity

## O=C(O)[C@H]1CSC(c2nc3ccc(O)cc3s2)=N1 [Lucifenn]
luciferase; luciferin 1.32 mg/l
  % max. signal (luciferase): 42%
luciferase; luciferin 1.98 mg/l
  % max. signal (luciferase): 58%
luciferase; luciferin 2.96 mg/l
  % max. signal (luciferase): 65%
luciferase; luciferin 4.44 mg/l
  % max. signal (luciferase): 75%
luciferase; luciferin 6.67 mg/l
  % max. signal (luciferase): 88%
luciferase; luciferin 10.0 mg/l
  % max. signal (luciferase): 95%
luciferase; luciferin 15.0 mg/l
  % max. signal (luciferase): 100%

## OCCS [BME, β-mercaptoethanol]
luciferase; BME 0.59 ml/l
  max. signal (luciferase): 80%
luciferase; BME 0.88 ml/l
  max. signal (luciferase): 82%
luciferase; BME 1.32 ml/l
  max. signal (luciferase): 68%
luciferase; BME 1.98 ml/l
  max. signal (luciferase): 84%
luciferase; BME 2.96 ml/l
  max. signal (luciferase): 86%
luciferase; BME 4.44 ml/l
  max. signal (luciferase): 100%
luciferase; BME 6.67 ml/l
  max. signal (luciferase): 94%
luciferase; BME 10.0 ml/l
  max. signal (luciferase): 93%

## O.O.O.O.O.O.O.O=S(=O)([O-])[O-].[Mg+2] [MgSO4, magnesium sulphate-heptahydrate]
luciferase; MgSO4 0.35 g/l
  % max. signal (luciferase): 20%
luciferase; MgSO4 0.53 g/l
  % max. signal (luciferase): 48%
luciferase; MgSO4 0.79 g/l
  % max. signal (luciferase): 64%
luciferase; MgSO4 1.19 g/l
  % max. signal (luciferase): 77%
luciferase; MgSO4 1.78 g/l
  % max. signal (luciferase): 77%
luciferase; MgSO4 2.67 g/l
  % max. signal (luciferase): 100%
luciferase; MgSO4 4.00 g/l
  % max. signal (luciferase): 100%

## Nc1ncnc2c1ncn2[C@@H]1O[C@H](COP(=O)(O)OP(=O)(O)OP(=O)(O)O)[C@@H](O)[C@H]1O [ATP, adenosine triphosphate]
luciferase; ATP 0.06 g/l
  % max. signal (luciferase): 61%
luciferase; ATP 0.13 g/l
  % max. signal (luciferase): 95%
luciferase; ATP 0.29 g/l
  % max. signal (luciferase): 100%
luciferase; ATP 0.65 g/l
  % max. signal (luciferase): 98%
luciferase; ATP 1.47 g/l
  % max. signal (luciferase): 83%
luciferase; ATP 3.30 g/l
  % max. signal (luciferase): 78%

## COc1ccccc1CN[C@H]1C2CCN(CC2)[C@H]1C(c1ccccc1)c1ccccc1 (relative stereo) [BIBO 2020, ±cis-3-(2-methoxybenzylamino)-2-benzhydrylquinulidine]
[2]
  inhibition of the agonistic effect of neurokinin A: effective at higher concentrations (P7492>BIBO 2020>H-9290)

## neuromedin K (NMK): neurokinin (Sigma), tachykinin
Cell line A20
  induction of luciferase activity by receptor agonists in pretest cell line A20: could not be induced by any of the three tachykinins
[2]; dosage activity curves, FIG. 29A
  relative effectiveness of the neurokinins: NKA>neuromedin K (NMK)>substance P (SP)

## CN1CCc2cc(Cl)c(O)cc2[C@@H](c2ccccc2)C1 [SCH23390]
[3]
  prevention of agonist-mediated induction (CRE): prevented
